Experimental data as given in patent US11161839B2, “2-quinolone derived inhibitors of BCL6” (Cancer Research Technology Limited, priority 2017, dated 2021).
Like-named read-outs stand apart in the source and are kept apart here.

Key:
[1] = target: human BCL6 BTB domain (Trx-6xHis-BCL6) (Homo sapiens (Human), UniProt P41182); assay: HTRF in vitro assay (BCL6 BTB domain / BCOR-AF633 peptide); format: binding; settings: for IC50: read-out: HTRF pIC50 (converted)
Method: The % inhibition at each concentration was calculated by normalising FRET ratio to the appropriate high (DMSO with all reagents) and low (DMSO without BCL6) controls.

[2] = target: BCL6-NCOR2(SMRT) corepressor protein-protein interaction (Homo sapiens (Human), UniProt P41182); assay: NanoBRET cell assay in transfected HEK293T cells; format: cell-based
[3] = further generated data (Table 1b), 1 nM Trx-6xHis-BCL6, 0.5 nM anti-6xHis-Terbium cryptate
[4] = further generated data (Table 2b), HEK293T cells, 6 hr, read-out: NanoBRET cell pIC50 (converted)
[5] = initially generated data (Table 1a), 10 nM Trx-6xHis-BCL6, 1 nM anti-6xHis-Terbium cryptate

SMILES | IC50 [1, 3] [µM] | IC50 [2, 4] [µM] | HTRF pIC50 [1, 3] | HTRF pIC50 [1, 5] | IC50 [2] [µM]
C[C@@H](Nc1cc(=O)n(C)c2ccc(Nc3nc(N4CCC(C(=O)N(C)C)CC4)ncc3Cl)cc12)C1CC1 [Example 12b, (R)-1-(5-chloro-4-((4-((1-cyclopropylethyl)amino)-1-methyl-2-oxo-1,2-dihydroquinolin-6-yl)amino)pyrimidin-2-y1)-N,N-dimethylpiperidine-4-carboxamide] | 0.302 | 1.29 | – | – | –
CC(Nc1cc(=O)n(CCN2C(=O)CCC2=O)c2ccc(Nc3ccnc(Cl)c3C#N)cc12)c1ncccn1 (stereo not shown) [Example 1c, 2-chloro-4-[[1-[2-(2,5-dioxopyrrolidin-1-yl)ethyl]-2-oxo-4-(1-pyrimidin-2-ylethylamino)-6-quinolyl]amino]pyridine-3-carbonitrile] | – | 22.4 | 6.73 | 6.63 | –
CC(Nc1cc(=O)n(C)c2ccc(Nc3nc(NCc4cccnc4)ncc3Cl)cc12)c1ncccn1 (stereo not shown) [Example 17f, 6-((5-chloro-2-((pyridin-3-ylmethyl)amino)pyrimidin-4-yl)amino)-1-methyl-4((1-(pyrimidin-2-yl)ethyl)amino)quinolin-2(1H)-one:formic acid (1:1)] | – | 3.24 | 6.32 | – | –
Cn1c(=O)cc(NC2(c3ncccn3)CCOC2)c2cc(Nc3ccnc(Cl)c3C#N)ccc21 (stereo not shown) [Example 19i, 2-chloro-4-((1-methyl-2-oxo-4-((3-(pyrimidin-2-yl)tetrahydrofuran-3-yl)amino)-1,2-dihydroquinolin-6-yl)amino)nicotinonitrile] | – | 9.33 | 6.38 | – | –
CC(Nc1cc(=O)n(CC2CCC2)c2ccc(Nc3ccnc(Cl)c3C#N)cc12)c1ncccn1 (stereo not shown) [Example 11i, 2-chloro-4((1-(cyclobutylmethyl)-2-oxo-4-((1-(pyrimidin-2-yl)ethyl)amino)-1,2-dihydroquinolin-6-yl)amino)nicotinonitrile] | – | 2.09 | 6.64 | – | –
COC[C@@H]1CCCN1C(=O)c1cc(Nc2ccc3c(c2)c(NC(C)(C)c2ncccn2)cc(=O)n3C)c(C#N)c(Cl)n1 [Example 8e] | 0.0282 | 0.676 | – | – | –
CC(Nc1cc(=O)n(CC2CC2)c2ccc(Nc3ccnc(Cl)c3C#N)cc12)c1ncccn1 (stereo not shown) [Example 11h, 2-chloro-4-((1-(cyclopropylmethyl)-2-oxo-4-((1-(pyrimidin-2-yl)ethyl)amino)-1,2-dihydroquinolin-6-yl)amino)nicotinonitrile] | – | 2.82 | 6.65 | – | –
CC(Nc1cc(=O)n(C)c2ccc(Nc3nc(N4CC5(CCOCC5)C4)ncc3Cl)cc12)c1ncccn1 (stereo not shown) [Example 17h, 6-((5-chloro-2-(7-oxa-2-azaspiro[3.5]nonan-2-yl)pyrimidin-4-yl)amino)-1-methyl-4((1-(pyrimidin-2-yl)ethyl)amino)quinolin-2(1H)-one:formic acid (1:1)] | – | 4.17 | 6.20 | – | –
CC(Nc1cc(=O)n(C)c2ccc(Nc3ccnc(Cl)c3Cl)cc12)c1ncccn1 (stereo not shown) [Example 6a, 6-[(2,3-Dichloro-4-pyridyl)amino]-1-methyl-4-(1-pyrimidin-2-ylethylamino)quinolin-2-one] | – | 2.82 | 6.56 | 6.36 | –
CC(Nc1cc(=O)n(C)c2ccc(Nc3cc(C(=O)N4CC(C(F)(F)F)C4)nc(Cl)c3C#N)cc12)c1ncc(C2CC2)cn1 (stereo not shown) [Example 8f, 2-chloro-4-((4-((1-(5-cyclopropylpyrimidin-2-yl)ethyl)amino)-1-methyl-2-oxo-1,2-dihydroquinolin-6-yl)amino)-6-(3-(trifluoromethyl)azetidine-1-carbonyl)nicotinonitrile] | – | 5.25 | 6.99 | – | –
CC(Nc1cc(=O)n(C)c2ccc(Nc3ccnc(Cl)c3C#N)cc12)c1ccccn1 (stereo not shown) [Example 11d, 2-chloro-4-((1-methyl-2-oxo-4-((1-(pyridin-2-yl)ethyl)amino)-1,2-dihydroquinolin-6-yl)amino)nicotinonitrile: formic acid (1:1)] | – | 4.37 | 6.34 | – | –
COC[C@@H]1CCCN1C(=O)c1cc(Nc2ccc3c(c2)c(N[C@H](C)C2CC2)cc(=O)n3C)c(Cl)cn1 [Example 15a, 6-((5-Chloro-2-((S)-2-(methoxymethyl)pyrrolidine-1-carbonyl)pyridin-4-yl)amino)-4-(((R)-1-cyclopropylethyl)amino)-1-methylquinolin-2(1H)-one] | – | 2 | 6.59 | – | –
C[C@@H](Nc1cc(=O)n(C)c2ccc(Nc3cc(C(=O)N4CCC4)nc(Cl)c3C#N)cc12)C1CC1 [Example 8c, (R)-6-(azetidine-1-carbonyl)-2-chloro-4-((4-((1-cyclopropylethyl)amino)-1-methyl-2-oxo-1,2-dihydroquinolin-6-yl)amino)nicotinonitrile] | – | 0.501 | 7.02 | – | –
C[C@@H](Nc1cc(=O)n(C)c2ncc(Nc3ccnc(Cl)c3C#N)cc12)C1CC1 [Example 24d, (R)-2-chloro-4-((5-((1-cyclopropylethyl)amino)-8-methyl-7-oxo-7,8-dihydro-1,8-naphthyridin-3-yl)amino)nicotinonitrile] | – | 4.47 | 6.53 | – | –
CC(Nc1cc(=O)n(C)c2ccc(Nc3cc(N4C[C@@H](C)O[C@@H](C)C4)ncc3Cl)cc12)c1ncccn1 (stereo partly drawn) [Example 15e, 6-((5-chloro-2-((2S,6R)-2,6-dimethylmorpholino)pyridin-4-yl)amino)-1-methyl-4-((1-(pyrimidin-2-yl)ethyl)amino)quinolin-2(1H)-one] | – | 4.27 | 6.28 | – | –
CN(C)C(=O)c1cc(Nc2ccc3c(c2)c(NC(C)(C)c2ncccn2)cc(=O)n3C)c(C#N)c(Cl)n1 [Example 19a, 6-chloro-5-cyano-N,N-dimethyl-4-((1-methyl-2-oxo-4-((2-(pyrimidin-2-yl)propan-2-yl)amino)-1,2-dihydroquinolin-6-yl)amino)picolinamide] | – | 2.75 | 7.55 | – | –
COCC(C)(C)Nc1cc(=O)n(C)c2ccc(Nc3ccnc(Cl)c3C#N)cc12 [Example 19d, 2-chloro-4-((4-((1-methoxy-2-methylpropan-2-yl)amino)-1-methyl-2-oxo-1,2-dihydroquinolin-6-yl)amino)nicotinonitrile] | – | 8.71 | 6.51 | – | –
CC(Nc1cc(=O)n(C)c2ccc(Nc3ccnc(Cl)c3C#N)cc12)c1cc2ccccc2cn1 (stereo not shown) [Example 24e, 2-chloro-4-((4-((1-(isoquinolin-3-yl)ethyl)amino)-1-methyl-2-oxo-1,2-dihydroquinolin-6-yl)amino)nicotinonitrile] | – | 3.47 | 6.38 | – | –
COCC(C)(C)Nc1cc(=O)n(C)c2ccc(Nc3nc(N4CCC(C(=O)N(C)C)CC4)ncc3Cl)cc12 [Example 16d, 1-(5-chloro-4-((4-((1-methoxy-2-methylpropan-2-yl)amino)-1-methyl-2-oxo-1,2-dihydroquinolin-6-yl)amino)pyrimidin-2-yl)-N,N-dimethylpiperidine-4-carboxamide] | – | 9.12 | 6.25 | – | –
CC(Nc1cc(=O)n(CCO)c2ccc(Nc3ccnc(Cl)c3C#N)cc12)c1ncccn1 (stereo not shown) [Example 11j, 2-chloro-4-((1-(2-hydroxyethyl)-2-oxo-4-((1-(pyrimidin-2-yl)ethyl)amino)-1,2-dihydroquinolin-6-yl)amino)nicotinonitrile] | – | 11 | 6.83 | – | –
CC(Nc1nc(=O)n(C)c2ccc(Nc3nc(N4CCC(C(=O)N(C)C)CC4)ncc3Cl)cc12)c1ncccn1 (stereo not shown) [Example 12d, 1-(5-chloro-4-((1-methyl-2-oxo-4((1-(pyrimidin-2-yl)ethyl)amino)-1,2-dihydroquinazolin-6-yl)amino)pyrimidin-2-yl)-N,N-dimethylpiperidine-4-carboxamide] | – | 11.2 | 6.78 | – | –
COc1ncc(Cl)c(Nc2ccc3c(c2)c(N[C@H](C)C2CC2)cc(=O)n3C)n1 [Example 11e] | – | 3.47 | 6.20 | – | –
Cc1cnc(C(C)Nc2cc(=O)n(C)c3ccc(Nc4ccnc(Cl)c4C#N)cc23)nc1 (stereo not shown) [Example 10f] | – | – | 7.12 | – | 1.07
CC(Nc1cc(=O)n(C)c2ccc(Nc3cc(N4CCC(F)(F)CC4)ncc3Cl)cc12)c1ncccn1 (stereo not shown) [Example 15h, 6-((5-chloro-2-(4,4-difluoropiperidin-1-yl)pyridin-4-yl)amino)-1-methyl-4-((1-(pyrimidin-2-yl)ethyl)amino)quinolin-2(1H)-one] | – | 6.92 | 6.21 | – | –
CC(Nc1cc(=O)n(C)c2ccc(Nc3nc(N4C[C@@H](C)O[C@@H](C)C4)ncc3Cl)cc12)c1ncccn1 (stereo partly drawn) [Example 17a, 6-((5-chloro-2-((2S,6R)-2,6-dimethylmorpholino)pyrimidin-4-yl)amino)-1-methyl-4-((1-(pyrimidin-2-yl)ethyl)amino)quinolin-2(1H)-one] | – | 1.78 | 6.48 | – | –
CC(Nc1cc(=O)n(CC2CC2)c2ccc(Nc3ccnc(Cl)c3Cl)cc12)c1ncccn1 (stereo not shown) [Example 6g, 1-(cyclopropylmethyl)-6-[(2,3-dichloro-4-pyridyl)amino]-4-(1-pyrimidin-2-ylethylamino)quinolin-2-one] | – | 7.41 | 6.25 | – | –
Cn1c(=O)cc(N[C@H](CO)C2CC2)c2cc(Nc3ccnc(Cl)c3C#N)ccc21 [Example 11a, (S)-2-chloro-4-((4-((1-cyclopropyl-2-hydroxyethyl)amino)-1-methyl-2-oxo-1,2-dihydroquinolin-6-yl)amino)nicotinonitrile] | – | 3.39 | 6.78 | – | –
CC(Nc1cc(=O)n(C)c2ccc(Nc3nc(N4CC(C)(C#N)C4)ncc3Cl)cc12)c1ncccn1 (stereo not shown) [Example 17j, 1-(5-chloro-4-((1-methyl-2-oxo-4-((11-(pyrimidin-2-yl)ethyl)amino)-1,2-dihydroquinoline-6-yl)amino)pyrimidin-2-yl)-3-methylazetidine-3-carbonitrile] | – | 4.9 | 6.18 | – | –
